Data: PMC4042160, “In silico, in vitro and cellular analysis with a kinome-wide inhibitor panel correlates cellular LRRK2 dephosphorylation to inhibitor activity on LRRK2” (Frontiers in Molecular Neuroscience, 2014)
Values joined by “and” are separate entries in the source; they are usually repeats but may differ in a detail not shown here. Identical values can stand only once.

Legend:
[1] = target: T1, GST-tagged truncated LRRK2 containing residues 970 to 2527 (Homo sapiens, UniProt Q5S007); assay: In vitro LRRKtide peptide-substrate kinase assay, single dose testing (10 μM); type: biochemical; conditions: for % LRRKtide phosphorylation relative to solvent: LRRKtide assay @ 10 μM inhibitor, GST-LRRK2 970-2527, 10 μM ATP, mean, N = 3, solvent control = 100%; for activity on LRRK2 kinase activity in vitro (in words): no activity at 10 μM
T1 construct: GST-tagged truncated LRRK2 containing residues 970 to 2527 (Life Technologies); purchased Life Technologies
T1 sequence (Q5S007 970-2527): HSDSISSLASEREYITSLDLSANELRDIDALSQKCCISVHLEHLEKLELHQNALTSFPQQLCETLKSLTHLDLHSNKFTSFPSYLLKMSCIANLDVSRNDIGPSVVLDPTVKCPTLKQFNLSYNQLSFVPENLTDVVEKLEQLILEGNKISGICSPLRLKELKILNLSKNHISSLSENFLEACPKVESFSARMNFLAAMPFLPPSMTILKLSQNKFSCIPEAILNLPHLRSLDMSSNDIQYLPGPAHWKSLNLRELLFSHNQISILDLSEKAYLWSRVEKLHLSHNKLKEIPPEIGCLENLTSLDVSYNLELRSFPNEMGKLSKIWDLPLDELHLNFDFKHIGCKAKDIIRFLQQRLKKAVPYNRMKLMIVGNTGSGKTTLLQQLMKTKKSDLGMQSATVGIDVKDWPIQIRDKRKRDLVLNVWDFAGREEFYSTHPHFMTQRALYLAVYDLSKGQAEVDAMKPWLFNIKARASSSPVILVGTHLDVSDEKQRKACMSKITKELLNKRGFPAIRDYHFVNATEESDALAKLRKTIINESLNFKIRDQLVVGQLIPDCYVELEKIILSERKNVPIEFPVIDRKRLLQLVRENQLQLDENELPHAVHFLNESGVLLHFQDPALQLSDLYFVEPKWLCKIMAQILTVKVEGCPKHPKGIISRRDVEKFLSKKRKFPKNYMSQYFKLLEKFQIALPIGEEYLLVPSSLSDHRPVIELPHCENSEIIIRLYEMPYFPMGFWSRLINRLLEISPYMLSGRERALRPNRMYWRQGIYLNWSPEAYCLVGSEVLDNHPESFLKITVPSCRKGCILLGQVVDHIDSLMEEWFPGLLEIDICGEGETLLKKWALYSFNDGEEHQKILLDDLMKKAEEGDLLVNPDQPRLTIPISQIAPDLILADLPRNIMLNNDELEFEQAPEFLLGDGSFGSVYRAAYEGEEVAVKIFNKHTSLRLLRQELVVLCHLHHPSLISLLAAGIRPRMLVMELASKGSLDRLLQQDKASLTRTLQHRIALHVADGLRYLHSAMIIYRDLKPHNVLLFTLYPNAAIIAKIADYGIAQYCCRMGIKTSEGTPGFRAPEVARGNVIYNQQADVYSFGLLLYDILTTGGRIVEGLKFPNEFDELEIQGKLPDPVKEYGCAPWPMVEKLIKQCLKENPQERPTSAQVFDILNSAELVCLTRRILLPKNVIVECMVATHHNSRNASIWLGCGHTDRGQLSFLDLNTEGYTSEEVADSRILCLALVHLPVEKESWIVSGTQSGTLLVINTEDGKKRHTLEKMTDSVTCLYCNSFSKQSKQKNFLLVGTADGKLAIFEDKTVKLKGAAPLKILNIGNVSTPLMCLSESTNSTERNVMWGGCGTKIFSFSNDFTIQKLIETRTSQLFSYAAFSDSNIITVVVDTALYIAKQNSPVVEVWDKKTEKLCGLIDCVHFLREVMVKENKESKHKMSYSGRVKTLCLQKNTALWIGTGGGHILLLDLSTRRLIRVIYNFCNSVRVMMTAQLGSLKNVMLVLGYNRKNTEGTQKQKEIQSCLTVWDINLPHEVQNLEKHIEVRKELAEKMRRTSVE

LRRK2 phospho-Ser935 = target: T2, LRRK2 phospho-Ser935 (Homo sapiens, UniProt Q5S007); assay: Cellular LRRK2 phosphoserine 935 dephosphorylation spotblot assay in SH-SY5Y cells stably expressing 3xFlag-LRRK2; type: cell-based; conditions: for dephosphorylation of LRRK2 (Ser935): 5 μM, 2 h, SH-SY5Y; for Phosphorylation level relative to solvent (%) (cellular pS935 assay): @ 5 μM for 2 h, SH-SY5Y stably expressing LRRK2, pS935/total LRRK2
T2 construct: expressed in transfected cells
T2 sequence (Q5S007 whole entry): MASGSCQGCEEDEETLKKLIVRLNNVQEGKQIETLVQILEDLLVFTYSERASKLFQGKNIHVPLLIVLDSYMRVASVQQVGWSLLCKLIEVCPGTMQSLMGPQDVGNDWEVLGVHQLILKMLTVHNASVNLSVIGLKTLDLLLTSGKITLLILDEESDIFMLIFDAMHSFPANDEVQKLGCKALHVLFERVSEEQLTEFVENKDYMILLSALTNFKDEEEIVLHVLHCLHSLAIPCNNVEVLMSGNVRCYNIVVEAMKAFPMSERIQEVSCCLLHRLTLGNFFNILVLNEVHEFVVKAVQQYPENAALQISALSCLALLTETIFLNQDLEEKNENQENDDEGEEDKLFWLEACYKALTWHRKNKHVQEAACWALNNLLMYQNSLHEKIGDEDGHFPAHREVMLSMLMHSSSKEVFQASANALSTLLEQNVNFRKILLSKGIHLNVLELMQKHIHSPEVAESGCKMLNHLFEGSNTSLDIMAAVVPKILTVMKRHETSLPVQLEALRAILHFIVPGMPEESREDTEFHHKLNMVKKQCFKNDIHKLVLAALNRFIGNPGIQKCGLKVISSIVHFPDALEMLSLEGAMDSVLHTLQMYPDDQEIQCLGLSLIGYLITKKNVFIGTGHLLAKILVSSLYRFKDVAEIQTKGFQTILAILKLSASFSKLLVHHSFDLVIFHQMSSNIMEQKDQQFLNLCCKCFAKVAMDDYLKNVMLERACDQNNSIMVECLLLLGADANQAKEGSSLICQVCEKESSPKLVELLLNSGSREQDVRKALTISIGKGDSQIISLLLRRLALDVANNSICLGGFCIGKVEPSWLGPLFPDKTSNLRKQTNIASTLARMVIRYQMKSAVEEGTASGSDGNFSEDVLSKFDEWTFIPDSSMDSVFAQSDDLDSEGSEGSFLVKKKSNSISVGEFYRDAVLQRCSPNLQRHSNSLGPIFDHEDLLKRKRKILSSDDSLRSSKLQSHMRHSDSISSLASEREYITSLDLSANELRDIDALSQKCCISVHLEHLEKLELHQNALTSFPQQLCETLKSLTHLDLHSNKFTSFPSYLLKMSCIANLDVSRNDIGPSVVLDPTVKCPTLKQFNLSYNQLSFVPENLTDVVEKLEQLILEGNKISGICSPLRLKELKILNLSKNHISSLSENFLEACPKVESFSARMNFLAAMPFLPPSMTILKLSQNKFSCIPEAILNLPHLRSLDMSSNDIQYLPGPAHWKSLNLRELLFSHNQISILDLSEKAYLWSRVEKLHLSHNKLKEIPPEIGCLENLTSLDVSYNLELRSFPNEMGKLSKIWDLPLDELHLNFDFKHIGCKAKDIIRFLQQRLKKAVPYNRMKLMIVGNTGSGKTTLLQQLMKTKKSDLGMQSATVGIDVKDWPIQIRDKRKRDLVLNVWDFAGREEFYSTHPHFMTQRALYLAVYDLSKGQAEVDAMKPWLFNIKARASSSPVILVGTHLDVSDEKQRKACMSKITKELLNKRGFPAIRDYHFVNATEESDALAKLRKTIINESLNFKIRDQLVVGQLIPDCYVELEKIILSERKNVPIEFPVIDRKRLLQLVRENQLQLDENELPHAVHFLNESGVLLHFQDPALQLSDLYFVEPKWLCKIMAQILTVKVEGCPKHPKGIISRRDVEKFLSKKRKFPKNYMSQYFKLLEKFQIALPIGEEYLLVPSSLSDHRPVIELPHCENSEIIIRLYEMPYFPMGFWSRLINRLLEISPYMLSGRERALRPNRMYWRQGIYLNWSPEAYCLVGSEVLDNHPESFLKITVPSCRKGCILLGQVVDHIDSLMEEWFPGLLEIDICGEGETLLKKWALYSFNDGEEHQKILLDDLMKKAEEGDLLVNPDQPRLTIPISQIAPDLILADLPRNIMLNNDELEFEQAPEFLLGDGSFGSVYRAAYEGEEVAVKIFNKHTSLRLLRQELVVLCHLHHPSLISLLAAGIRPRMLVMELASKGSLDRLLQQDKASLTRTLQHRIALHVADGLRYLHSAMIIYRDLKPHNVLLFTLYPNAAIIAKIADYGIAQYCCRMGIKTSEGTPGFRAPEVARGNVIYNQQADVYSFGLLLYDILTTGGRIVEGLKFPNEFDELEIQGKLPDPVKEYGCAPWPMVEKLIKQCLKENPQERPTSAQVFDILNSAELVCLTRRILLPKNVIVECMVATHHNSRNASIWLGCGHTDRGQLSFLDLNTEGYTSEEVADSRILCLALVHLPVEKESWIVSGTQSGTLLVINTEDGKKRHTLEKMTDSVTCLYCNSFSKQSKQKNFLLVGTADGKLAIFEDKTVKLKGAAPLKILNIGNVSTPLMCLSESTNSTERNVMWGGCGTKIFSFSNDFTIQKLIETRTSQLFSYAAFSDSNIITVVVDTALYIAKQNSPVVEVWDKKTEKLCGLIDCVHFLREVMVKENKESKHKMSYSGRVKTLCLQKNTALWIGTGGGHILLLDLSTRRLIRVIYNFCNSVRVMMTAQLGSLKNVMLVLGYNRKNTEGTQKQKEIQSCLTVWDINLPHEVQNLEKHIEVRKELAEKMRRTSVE

Row | % LRRKtide phosphorylation relative to solvent [1] | Phosphorylation level relative to solvent (%) (cellular pS935 assay) (LRRK2 phospho-Ser935) | activity on LRRK2 kinase activity in vitro (in words) [1] | Structure (SMILES) | dephosphorylation of LRRK2 (Ser935) (LRRK2 phospho-Ser935) | Cellular pS935 (% @ 5 μM) (LRRK2 phospho-Ser935; pS935 level as % of control, 5 μM for 2 h, SH-SY5Y cells with stable expression of LRRK2) [%]
1 | 77.45% | 60.39 |  | N#CC(C#N)=C(N)/C(C#N)=C/c1ccc(O)cc1 [AG 112] |  | 
2 | 89.08% | 49.08 |  | Cc1cc2ncc(-c3ccccc3)nc2cc1C [AG 1295] |  | 
3 | 22.76% | 50.93 |  | COc1cc2ncc(-c3ccccc3)nc2cc1OC [AG 1296] |  | 
4 | 29.68% | 90.06 |  | Cc1nc2cc3nc(-c4cccs4)cnc3cc2n1C [AGL 2043] |  | 
5 | 24.40% | 112.70 |  | c1cc(-c2cnn3cc(-c4ccc(OCCN5CCCCC5)cc4)cnc23)ccn1 [AMPK inhibitor, compound C] |  | 
6 | 86.09% | 103.28 |  | O=c1cc(-c2cccc3c2Sc2ccccc2S3)oc(N2CCOCC2)c1 [ATM kinase inhibitor] |  | 
7 | 131.38% | 88.64 |  | O=C(NC(NC(=S)Nc1ccc(F)c([N+](=O)[O-])c1)C(Cl)(Cl)Cl)C(c1ccccc1)c1ccccc1 (stereo not shown) [ATM/ATR kinase inhibitor] |  | 
8 | 18.59% | 76.44 |  | CC[n+]1c(/C=C/N(C)c2ccccc2)n(-c2ccccc2)c2ccc(-c3nc4ccccc4s3)cc21.[I-] [Akt inhibitor IV] |  | 
9 | 61.91% | 69.13 |  | CCN(CC)CCCCN1c2ccccc2Oc2ccc(Cl)cc21 [Akt inhibitor X] |  | 
10 | 23.85% | 102.87 |  | CCCCc1c(-c2ccc(O)cc2)[nH]c2nccnc12 [Aloisine A, RP107, Aloisine A] |  | 
11 | 17.45% | 109.11 |  | CCCCc1c(-c2ccc(OC)cc2)[nH]c2nccnc12 [Aloisine, RP106] |  | 
12 | 10.82% | 96.84 |  | N#CCCc1ccc2c(c1)-c1[nH]c3ccc([N+](=O)[O-])cc3c1CC(=O)N2 [Alsterpaullone, 2-Cyanoethyl] |  | 
13 | 31.34% | 108.54 |  | O=C1Cc2c([nH]c3ccc([N+](=O)[O-])cc23)-c2ccccc2N1 [Alsterpaullone] |  | 
14 | 83.96% and 44.16% |  | inactive | O=C(Nc1cccc(Nc2nccc(Nc3cccc(C(F)(F)F)c3)n2)c1)C1CC1 [Aurora kinase inhibitor III] | ~ 50% | 
15 | 82.04% | 78.83 |  | NC(=O)c1cccc(-c2cc(Nc3ccc(OC(F)(F)F)cc3)ncn2)c1 [Bcr-abl inhibitor] |  | 
16 | 3.07% | 84.51 |  | O=C1NC(=O)C(c2c[nH]c3ccccc23)=C1c1c[nH]c2ccccc12 [Bisindolylmaleimide IV] |  | 
17 | 60.00% | 97.88 |  | NC(=O)c1ccc(-c2nc(-c3ccc4c(c3)OCCO4)c(-c3ccccn3)[nH]2)cc1 [Casein kinase I inhibitor, D4476, D4476] |  | 
18 | 16.78% | 116.47 |  | O=C(O)/C=C/c1cc(Br)c(Br)c(Br)c1Br [Casein kinase II inhibitor III, TBCA, TBCA] |  | 

Row | % LRRKtide phosphorylation relative to solvent [1] | Phosphorylation level relative to solvent (%) (cellular pS935 assay) (LRRK2 phospho-Ser935) | activity on LRRK2 kinase activity in vitro (in words) [1] | Structure (SMILES) | dephosphorylation of LRRK2 (Ser935) (LRRK2 phospho-Ser935) | Cellular pS935 (% @ 5 μM) (LRRK2 phospho-Ser935; pS935 level as % of control, 5 μM for 2 h, SH-SY5Y cells with stable expression of LRRK2) [%]
19 | 37.41% | 81.30 |  | CCN1/C(=C/C(C)=O)Sc2ccc(OC)cc21 [Cdc2-like kinase inhibitor, TG003, TG003] |  | 
20 | 25.04% | 123.99 |  | Nc1[nH]nc2nc3ccccc3nc12 [Cdk1/5 inhibitor] |  | 
21 | 0.98% | 34.63 |  | CCN(CC)C(=O)c1ccc(Nc2nc(OCC3CCCCC3)c3[nH]cnc3n2)cc1 [Cdk2 inhibitor IV, NU6140, NU6140] |  | 
22 | 76.06% | 70.36 |  | COc1ccc(OC)c2c(=S)c3ccccc3[nH]c12 [Cdk4 inhibitor II, 625987, NSC 625987] |  | 
23 | 26.80% | 48.63 |  | Cc1ccc(NC2=CC(=O)c3sc(C)nc3C2=O)cc1 [Cdk4 inhibitor III] |  | 
24 | 6.82% | 49.88 |  | O=C1NC(=O)c2c1c1c3ccccc3[nH]c1c1[nH]c3cc(Br)ccc3c21 [Cdk4 inhibitor] |  | 
25 | 54.91% | 97.11 |  | CC(C)c1nn(-c2c(Cl)cccc2Cl)c2nc(Cc3ccc(OCCO)cc3)[nH]c(=O)c12 [Cdk/Crk inhibitor] |  | 
26 | 68.41% | 71.78 |  | CC(=O)c1ccc(N2CCOCC2)cc1O [DNA-PK inhibitor III] |  | 
27 | 86.06% | 81.93 |  | O=c1cc(N2CCOCC2)oc2c1ccc1ccccc12 [DNA-PK inhibitor II] |  | 
28 | 89.01% | 48.36 | inactive | O=C(c1ccccc1)c1ccc(N2CCOCC2)cc1O [DNA-PK inhibitor V] | ~ 50% | 
29 | 119.82% | 84.54 |  | O=c1c2ccccc2[nH]c(=S)n1CCN1CCC(=C(c2ccc(F)cc2)c2ccc(F)cc2)CC1 [Diacylglycerol kinase inhibitor II] |  | 
30 | 64.37% | 57.76 |  | O=C(Nc1cccc(Nc2cc(Nc3cccc(C(F)(F)F)c3)ncn2)c1)C1CC1 [EGFR inhibitor] |  | 
31 | 81.86% | 69.18 |  | CC#CC(=O)Nc1cc2c(Nc3ccc(F)c(Cl)c3)ncnc2cn1 [EGFR/ErbB-2/ErbB-4 inhibitor] |  | 
32 | 14.06% | 65.88 |  | Nc1[nH]nc2nnc(-c3c(-c4ccccc4)nn4ccccc34)cc12 [ERK inhibitor II, FR180204, FR180204] |  | 
33 | 97.07% | 77.12 |  | O=c1[nH][nH]c2nnc(-c3c(-c4ccccc4)nn4ccccc34)cc12 [ERK inhibitor II, negative control] |  | 
34 | 12.56% | 54.21 |  | c1ccc(-c2cnc(Nc3ccc(OCCN4CCCC4)cc3)s2)cc1 [Flt-3 inhibitor III] |  | 
35 | 2.16% | 53.00 |  | O=C(c1cc2cc(O)ccc2[nH]1)c1cc2cc(O)ccc2[nH]1 [Flt-3 inhibitor II] |  | 
36 |  |  |  | CN[C@@H]1C[C@H]2O[C@@](C)([C@@H]1OC)n1c3ccccc3c3c4c(c5c6ccccc6n2c5c31)C(=O)NC4 [Staurosporine, Streptomyces sp., Staurosporine] |  | 8.89

Row | Structure (SMILES) | % LRRKtide phosphorylation relative to solvent [1] | Phosphorylation level relative to solvent (%) (cellular pS935 assay) (LRRK2 phospho-Ser935) | activity on LRRK2 kinase activity in vitro (in words) [1] | dephosphorylation of LRRK2 (Ser935) (LRRK2 phospho-Ser935) | Cellular pS935 (% @ 5 μM) (LRRK2 phospho-Ser935; pS935 level as % of control, 5 μM for 2 h, SH-SY5Y cells with stable expression of LRRK2) [%]
37 | N#C/C(=C/c1ccc(O)c(O)c1)C(=O)NCc1ccccc1 [AG490] | 34.24% | 50.68 |  | 49.32% | 
38 | CC(C)(C)c1cc(C=C(C#N)C#N)cc(Br)c1O [AG 1024] | 51.38% | 94.37 |  |  | 
39 | O=c1[nH]c2ccccc2n1C1CCN(Cc2ccc(-c3nc4cc5nc[nH]c5cc4nc3-c3ccccc3)cc2)CC1 [Akti-1/2] | 99.69% | 77.80 |  |  | 
40 | Nc1nc(Nc2ccc(S(N)(=O)=O)cc2)nn1C(=O)c1c(F)cccc1F [Aurora kinase/Cdk inhibitor] | 1.21% | 45.67 |  |  | 
41 | Cc1ccc(S(=O)(=O)/C=C/C#N)cc1 [BAY 11-7082] | 132.94% | 47.14 | inactive | ~ 50% | 
42 | CN(C)CCCn1cc(C2=C(c3c[nH]c4ccccc34)C(=O)NC2=O)c2ccccc21 [Bisindolylmaleimide I] | 4.46% | 73.14 |  |  | 
43 | CCn1cnc2c(Nc3cccc(Cl)c3)nc(N[C@@H]3CCCC[C@@H]3N)nc21 [Cdk1 inhibitor, CGP74514A, CGP74514A] | 3.91% | 83.35 |  |  | 
44 | COc1ccc2c(c[n+](C)c3c4cc5c(cc4ccc23)OCO5)c1OC [Chelerythrine chloride] | 77.91% | 67.25 |  |  | 
45 | N/C(=N\[N+](=O)[O-])N/N=C\c1ccc(-c2cccc([N+](=O)[O-])c2)o1 [ERK inhibitor III] | 55.32% | 90.93 |  |  | 
46 | O=C1c2ccccc2-[n+]2ccc3c([nH]c4ccccc43)c21 [Fascaplysin, synthetic, Fascaplysin] | 17.51% | 45.44 |  |  | 
